Consider seven compounds from patent publication US20050038113A1, “Valproic acid and derivatives for the combinatorial therapeutic treatment of human cancers and for the treatment of tumor metastasis and minimal residual disease” (G2M Cancer Drugs AG, priority 2001, published 2005).

The test system of experiment [1] is DU-145 prostate cancer cells. Kind of experiment: SRB-assay, reduction in total cellular biomass. The experiment is classed as cell-based, human. Particulars: 48 hours. Here is the method:
(§1) The reduction in cellular biomass was measured by SRB-assay. For this assay cells were seeded in 96 well culture dishes at densities between 3000 and 8000 cells per well. […] Cultures were fixed with cold TCA producing a final TCA concentration of 10%. After 1 hour of incubation at 4° C. the cells were washed five times with water and air dried. Fixed cells were stained for 30 minutes with 0,4% (wt/vol) Sulforhodamine B (SRB) dissolved in 1% acetic acid and washed four times with 1% acetic acid to remove unbound dye. After air drying bound dye was solubilized with 10 mM unbuffered Tris base (pH 10,5) for 5 minutes. Optical densities were read on a Titertek Multiskan Plus spectrophotometric plate reader at 550 nm. Six test wells for each dose-response were set in parallel with 12 growth control wells per cell line. A measure of the cell population density at time 0 (To; the time at which the drug was added) was also made from 12 extra reference wells of cells fixed with TCA just prior to drug addition to the test plates. Background OD of complete medium with 5% FBS fixed and stained as described above was also determined in 12 separate wells. From the unprocessed OD data from each microtiter plate the background OD measurements (i.e. OD of complete medium plus stain and OD of cells at T0) were subtracted thus giving the reduction of cellular biomass of the cells.
(§2) The effect on the reduction in total cellular biomass was measured by SRB-assay (see example 1 for assay and read-out procedure details).
Results using MCF-7 estrogen-dependent breast cancer cells are presented in FIG. 18 and using DU-145 prostate cancer cells in FIG. 19. […] The effect on cell growth was measured by SRB-assay as described in example 1.

Experiment [2] deals with HCT-15 colon cancer cells. Kind of experiment: SRB-assay, reduction in total cellular biomass. The note with it: 5-FU alone at doses lower than 0.5 μM, 48 hours. The experiment is classed as cell-based, human. The protocol:
as §1
This was in particular obvious when lower concentrations of 5-FU were used. E.g. […] Thus, this combinatorial activity of these two drugs must be explained via a synergistic activity of this treatment.
On the technique in general: The SRB assay estimates cell density from bound dye.

The subject of experiment [3] is HCT-116 colon cancer cells. Nature of the experiment: cell counts and propidium iodide cell cycle/apoptosis analysis. The experiment is classed as cell-based, human. The protocol: For FIG. 14 cells were seeded in 6 well culture dishes at 100000 cells/well. The day after, they were treated with the indicated drugs (5-FU: 2 μM 5-Fluoruracile; AD: 20 ng/ml adriamycin; IT: 3 μM irinothecan), and then cultured for further 48 hours. Cells were counted at 24 h and 48 h after treatment. All of the assays have been performed in triplicate.
For FIG. 15 cells were seeded in 6 well culture dishes at 100000 cells/well. […] (A), results of triplicate counts of viable cells. (B), cells were stained with propidium iodide after permeabilization and fixation. Results of a cell cycle analysis are presented as percentage (%) of cells in G1, S, G2+M, and sub-G1 (apoptotic cells): all of the assays have been performed in triplicate.
(A), results of triplicate counts of viable cells. (B), cells were stained with propidium iodide after permeabilization and fixation. Results of a cell cycle analysis are presented as percentage (%) of apoptotic cells: all of the assays have been performed in triplicate.
For FIG. 17 cells were seeded in 10 cm culture dishes (1 million cells/dish). […] The day after, they were treated with the following drugs: 5-FU (panel A), AD (B), or IT (C), at the concentrations as indicated for FIG. 14. Cells were analyzed at the day of treatment, 24 h, and 48 h following treatment. Upper panels, results of triplicate counts of viable cells. Lower panels, cells were stained with propidium iodide after permeabilization and fixation. Results of a cell cycle analysis are presented as percentage (%) of apoptotic cells: all of the assays have been performed in triplicate.

In experiment [4] the test system is primary AML blasts from AML patients. Nature of the experiment: ex vivo differentiation, viability and apoptosis of leukemic blasts. The experiment is classed as cell-based, human. The protocol:
Each point represents the mean of a set of data determined in triplicate (Example 15). VPA may cause synergistic therapeutic responses.
Cases were classified according to the French-American-British (FAB) classification (Bennett et al., Ann Intern Med 103, 1985). Cytogenetic analysis and RT-PCR tests were performed to rule out the presence of the APL associated fusion genes according to standard methods as described (Mandelli et al., Blood 90, 1997; Mancini et al., Br J Haematol. 91, 1995; Grimwade et al., Blood 90, 1999).

A further experiment deals with PPARδ. Particulars: cited from earlier work.
For the next experiment, the system named is F9 cells. The note with it: cited from earlier work.
The subject of experiment [5] is PC-3 prostate cancer cells. Kind of experiment: SRB-assay, reduction in total cellular biomass. The experiment is classed as cell-based, human. Particulars: 0.75 mM racemic 4-yn VPA in combination with Camptothecin, 48 hours. Here is the method: as §1, with “From the unprocessed OD data from each microtiter plate the background OD measurements (i.e. OD of complete medium plus stain and OD of cells at T0) were subtracted thus giving the reduction of cellular biomass of the cells.” left out
as §2

The next experiment deals with PML-RAR leukemia. The note with it: PML-RAR patient with multiple relapses after retinoic acid and chemotherapy; cited from earlier work.
Where [6] appears, read: drug alone at the concentrations used (5-FU 2 μM; AD 20 ng/ml; IT 3 μM).

`N.N.[Cl][Pt][Cl]` [cisPlatinum]: the cellular biomass entry in experiment [1] (cisPlatinum alone at concentrations lower than 10 μM) and in experiment [1] (cisPlatinum alone at doses lower than 1 μM) was “no decrease of the cellular biomass” throughout.

In the case of `O=c1[nH]cc(F)c(=O)[nH]1` [5-FU, 5-Fluorouracil], the cellular biomass result in experiment [2] is “increase of the cellular biomass”. For the same compound, the values for the apoptosis result in experiment [3] (setting [6]), in experiment [3] (high concentrations of 5-FU alone (not shown)) and in experiment [3] (lower doses of 5-FU alone) were “did not induce apoptosis significantly”, “efficiently induce apoptosis” and “only a modest effect”, respectively. For the same compound, the growth rate result in experiment [3] (setting [6]) is recorded as “only moderately affected the growth rate”. In addition, the cell number entry in experiment [3] (lower doses of 5-FU alone, due to reduction in cycling cells) was “reduction in cell number”.

On to `CCc1c2c(nc3ccc(OC(=O)N4CCC(N5CCCCC5)CC4)cc13)-c1cc3c(c(=O)n1C2)COC(=O)[C@]3(O)CC` [irinothecan], for which, in experiment [3] (setting [6]), the apoptosis result was “did not induce apoptosis significantly” and the growth rate result is on record as “only moderately affected the growth rate”.

As for `CC(/C=C/C(=O)NO)=C\[C@@H](C)C(=O)c1ccc(N(C)C)cc1` [TSA], the “synergistic activities in combination (FIGS. 21 and 25)” value in experiment [4] (TSA +/- RA, compared to the extent VPA does) is given as “does not display this synergistic activities”. Further, the “apoptosis of AML blasts (FACS, propidium-iodide)” value in experiment [4] (single agent, 4 cases tested) is reported as “not TSA, was found effective in inducing apoptosis”. For the same compound, the PPARδ activation result in the experiment with PPARδ is reported as “activates PPARδ”. Further, the F9 cell differentiation entry in the experiment on F9 cells is “induces the same type of F9 cell differentiation as VPA”.

With `COc1cccc2c1C(=O)c1c(O)c3c(c(O)c1C2=O)C[C@@](O)(C(=O)CO)C[C@@H]3O[C@H]1C[C@H](N)[C@H](O)[C@H](C)O1` [adriamicine], in experiment [3] (setting [6]), the apoptosis entry is given as “did not induce apoptosis significantly” and the growth rate result is “only moderately affected the growth rate”.

Regarding `C#CCC(CCC)C(=O)O` (racemic) [4-yn VPA, 2-n-Propyl-4-pentynoic acid], the “reduction in cellular biomass” value in experiment [5] is listed as “at least additive therapeutic effect”. For the same compound, the “reduction of cellular biomass” value in experiment [1] (0.75 mM racemic 4-yn VPA in combination with cis Platinum lower than 10 μM) is “synergistic reduction of cellular biomass”.

phenylbutyrate: in the experiment with PML-RAR leukemia, the clinical response result is “complete remission of the leukemia”.
